Test results from patent US11950596B2, “Methods of protecting seeds from oxidants and microorganisms” (The United States of America, as represented by the …, priority 2020, dated 2024).
Where two headings read alike, the source gives them in different places. Marks after values point to notes of the source that are not given here.

Tests used:
A. flavus 3357 = assay: Heat-sensitizing antimicrobial bioassay (MFC) in A. flavus 3357; assay type: cell-based, Aspergillus flavus; details: for MFC: Aspergillus flavus, 3357, 0.025 h, read-out: minimum fungicidal concentration (MFC; >99.999% fungal death)
Experimental: Antimicrobial bioassay: The heat-sensitizing effect of twenty-eight compounds (phenolic derivatives, alkyl gallates, other food additives) (0.025, 0.050, 0.075, 0.100, 0.200, 0.300, 0.400, 0.500, 0.600 or 0.700 mM) and six drugs/fungicides (1, 2, 4, 8, 16, 32, 64 ppm) (Table 2) were examined using A. flavus 3357. Two hundred μL of fungal spores (1.5×10^5 to 2.1×10^5 CFU) dispersed in PBS was transferred into individual microfuge tube (1.5 mL vol.), where (1) “control” tube contained DMSO only, while (2) “treatment” tube contained test chemical/drug at respective concentration. The tubes were then treated with mild heat (57.5° C.) or maintained at room temperature (RT; 22.0° C.) for 90 seconds. After treatments, entire volume (200 μL) from each microfuge tube was spread onto fresh recovery PDA, and plates were incubated at respective temperatures. Fungal growth/survival was monitored after 48 hrs of incubation.
(§1) As described in A. flavus 3357 test (see above), microfuge tubes were treated with mild heat (57.5° C.) or maintained at RT (22.0° C.) (90 seconds). After heat treatments, entire volume (200 μL) from each microfuge tube was spread onto fresh recovery LB agar (for bacteria) or PDA (for fungi), and plates were incubated at the optimum temperature for respective microorganisms (i.e., 35° C. for Aspergillus, 37° C. for E. coli, 28° C. for Penicillium/A. tumefaciens, respectively). The growth/survival of test microorganisms were monitored after 48 to 72 hrs of incubation.
Determination of optimum temperature and time duration for screening heat sensitizers in A. flavus 3357: For the determination of the optimum temperature and time points for screening heat sensitizers, fungal (A. flavus 3357) survivability was tested by exposing fungal spores (1.5×10^5 to 2.1×10^5 CFU) to different temperatures (50, 55, 57.5, 60, 65° C.) and time points (0.5, 1.0, 1.5, 2.0, 2.5, 3.0, 3.5, 4.0, 4.5, 5.0 min).

A. flavus 4212 = assay: Heat-sensitizing bioassay of OG (MFC) in other fungi; assay type: cell-based, Aspergillus flavus; details: 90 seconds
Experimental: as §1
(§2) Heat-sensitizing activity of OG against other fungi: Heat-sensitizing activity of OG was then investigated in other fungi (five Aspergillus strains and seven Penicillium strains) including fungicide resistant strains (i.e., P. expansum FR2, FR3 resistant to the conventional fungicide fludioxonil) (see Table 1).

P. expansum FR2 = assay: as above; assay type: cell-based; details: Penicillium expansum, fludioxonil resistant mutant
Experimental: as §1, §2

P. expansum W2 = assay: as above; assay type: cell-based; details: Penicillium expansum, 90 seconds
Experimental: as §1, §2

P. expansum W1 = assay: as above; assay type: cell-based; details: Penicillium expansum, 90 seconds
Experimental: as §1, §2

P. expansum FR3 = assay: as above; assay type: cell-based; details: Penicillium expansum, fludioxonil resistant mutant
Experimental: as §1, §2

For CCCCCCCCOC(=O)c1cc(O)c(O)c(O)c1 [Octyl gallate], the “minimum fungicidal concentration (MFC; >99.999% fungal death)” value (A. flavus 3357) was 180* μM, the MFC (A. flavus 3357; 22.0° C. (RT), 90 seconds, PBS) was 250 µM and the MFC (A. flavus 3357) was 180 µM. It also gave an MFC (A. flavus 4212; Aspergillus flavus, 4212, 22.0° C.) of over 300 µM, an MFC (A. flavus 4212; Aspergillus flavus, 4212, 57.5° C.) of 180 µM and an MFC (P. expansum FR2; FR2, read-out: MFC of OG, 22.0° C., 90 seconds) of over 300 µM. For the same compound, the MFC (P. expansum FR2; FR2, read-out: MFC of OG, 57.5° C., 90 seconds) was 190 µM, the MFC (P. expansum W2; W2, 22.0° C.) was over 300 µM and the MFC (P. expansum W2; W2, 57.5° C.) was 170 µM. It also gave an MFC (P. expansum W1; W1, 22.0° C.) of over 300 µM, an MFC (P. expansum W1; W1, 57.5° C.) of 160 µM and an MFC (P. expansum FR3; FR3, read-out: MFC of OG, 22.0° C., 90 seconds) of over 300 µM. For the same compound, the MFC (P. expansum FR3; FR3, read-out: MFC of OG, 57.5° C., 90 seconds) was 160 µM.
